Test results taken from PubChem BioAssay AID1845212 (Molecular Pharmacology Branch, DTP, NCI, 2023).

tested on: NCI-H719 tumor spheroids, viability; assay: Anticancer human tumor NCI-H719 cell line growth inhibition; conditions: second compound 100 µM; first compound 0.1 µM; active compounds read low; spheroids with HUVEC and MSC;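 further: spheroids exposed to compounds for seven days; percent viability relative to DMSO vehicle control as 100%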
How it was run: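 Complex spheroids of malignant cells with endothelial cells and mesenchymal stem cells; agents alone or combined, from near clinical Cmax (or 10 microM if unknown) down in half-log steps, 0.25% DMSO final.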

In order of falling viability, T/C:
1. Cc1cc(C)c(CNC(=O)c2cc(-c3ccc(CN4CCOCC4)cc3)cc3c2cnn3C2CCCC2)c(=O)[nH]1 + Cn1nnc2c(C(N)=O)ncn2c1=O  108%
2. [2H]c1nc(C)nc([2H])c1-c1cc(NC[C@@H](C)c2cccc3c(C(=O)NC)ccnc23)ncn1 + Cn1nnc2c(C(N)=O)ncn2c1=O  84.2%
3. COc1ccc([C@@H](O)c2cc(-c3ncnc4cc(N5CCOCC5)ccc34)c(F)cc2Cl)nn1 + Cn1nnc2c(C(N)=O)ncn2c1=O  81%

same assay, conditions: second compound 100 µM; first compound 0.316 µM; active compounds read low; spheroids with HUVEC and MSC

In order of rising viability, T/C:
1. CC1COCCN1c1cc(-c2ccnn2C)c2ccnc(-c3ccn[nH]3)c2n1 (configuration not stated) + Cn1nnc2c(C(N)=O)ncn2c1=O  9.58%
2. COc1ccc([C@@H](O)c2cc(-c3ncnc4cc(N5CCOCC5)ccc34)c(F)cc2Cl)nn1 + Cn1nnc2c(C(N)=O)ncn2c1=O  55%
3. [2H]c1nc(C)nc([2H])c1-c1cc(NC[C@@H](C)c2cccc3c(C(=O)NC)ccnc23)ncn1 + Cn1nnc2c(C(N)=O)ncn2c1=O  68.6%
4. CC(C)n1c(=O)n(C)c2cnc3cc(F)c(-c4ccc(OCCCN5CCCCC5)nc4)cc3c21 + Cn1nnc2c(C(N)=O)ncn2c1=O  83.7%
5. COc1cc(C)[nH]c(=O)c1CN1CCc2c(Cl)cc(C(OC)C3COC3)c(Cl)c2C1=O (configuration not stated) + Cn1nnc2c(C(N)=O)ncn2c1=O  99.7%
6. Cc1cc(C)c(CNC(=O)c2cc(-c3ccc(CN4CCOCC4)cc3)cc3c2cnn3C2CCCC2)c(=O)[nH]1 + Cn1nnc2c(C(N)=O)ncn2c1=O  103%

same assay, conditions: second compound 100 µM; first compound 1 µM; active compounds read low; spheroids with HUVEC and MSC

In order of falling viability, T/C:
1. COc1cc(C)[nH]c(=O)c1CN1CCc2c(Cl)cc(C(OC)C3COC3)c(Cl)c2C1=O (configuration not stated) + Cn1nnc2c(C(N)=O)ncn2c1=O  109%
2. Cc1cc(C)c(CNC(=O)c2cc(-c3ccc(CN4CCOCC4)cc3)cc3c2cnn3C2CCCC2)c(=O)[nH]1 + Cn1nnc2c(C(N)=O)ncn2c1=O  103%
3. CC(C)n1c(=O)n(C)c2cnc3cc(F)c(-c4ccc(OCCCN5CCCCC5)nc4)cc3c21 + Cn1nnc2c(C(N)=O)ncn2c1=O  74.6%
4. [2H]c1nc(C)nc([2H])c1-c1cc(NC[C@@H](C)c2cccc3c(C(=O)NC)ccnc23)ncn1 + Cn1nnc2c(C(N)=O)ncn2c1=O  70.3%
5. COc1ccc([C@@H](O)c2cc(-c3ncnc4cc(N5CCOCC5)ccc34)c(F)cc2Cl)nn1 + Cn1nnc2c(C(N)=O)ncn2c1=O  36.5%
6. CC1COCCN1c1cc(-c2ccnn2C)c2ccnc(-c3ccn[nH]3)c2n1 (configuration not stated) + Cn1nnc2c(C(N)=O)ncn2c1=O  5.42%

same assay, conditions: second compound 100 µM; first compound 3.16 µM; active compounds read low; spheroids with HUVEC and MSC

In order of rising viability, T/C:
1. CC1COCCN1c1cc(-c2ccnn2C)c2ccnc(-c3ccn[nH]3)c2n1 (configuration not stated) + Cn1nnc2c(C(N)=O)ncn2c1=O  17.8%
2. COc1ccc([C@@H](O)c2cc(-c3ncnc4cc(N5CCOCC5)ccc34)c(F)cc2Cl)nn1 + Cn1nnc2c(C(N)=O)ncn2c1=O  34%
3. [2H]c1nc(C)nc([2H])c1-c1cc(NC[C@@H](C)c2cccc3c(C(=O)NC)ccnc23)ncn1 + Cn1nnc2c(C(N)=O)ncn2c1=O  68.2%
4. CC(C)n1c(=O)n(C)c2cnc3cc(F)c(-c4ccc(OCCCN5CCCCC5)nc4)cc3c21 + Cn1nnc2c(C(N)=O)ncn2c1=O  82.5%
5. Cc1cc(C)c(CNC(=O)c2cc(-c3ccc(CN4CCOCC4)cc3)cc3c2cnn3C2CCCC2)c(=O)[nH]1 + Cn1nnc2c(C(N)=O)ncn2c1=O  107%
6. COc1cc(C)[nH]c(=O)c1CN1CCc2c(Cl)cc(C(OC)C3COC3)c(Cl)c2C1=O (configuration not stated) + Cn1nnc2c(C(N)=O)ncn2c1=O  115%

same assay, conditions: second compound 100 µM; first compound 10 µM; active compounds read low; spheroids with HUVEC and MSC

In order of rising viability, T/C:
1. CC1COCCN1c1cc(-c2ccnn2C)c2ccnc(-c3ccn[nH]3)c2n1 (configuration not stated) + Cn1nnc2c(C(N)=O)ncn2c1=O  7.51%
2. COc1ccc([C@@H](O)c2cc(-c3ncnc4cc(N5CCOCC5)ccc34)c(F)cc2Cl)nn1 + Cn1nnc2c(C(N)=O)ncn2c1=O  17.3%
3. [2H]c1nc(C)nc([2H])c1-c1cc(NC[C@@H](C)c2cccc3c(C(=O)NC)ccnc23)ncn1 + Cn1nnc2c(C(N)=O)ncn2c1=O  62.8%
4. CC(C)n1c(=O)n(C)c2cnc3cc(F)c(-c4ccc(OCCCN5CCCCC5)nc4)cc3c21 + Cn1nnc2c(C(N)=O)ncn2c1=O  68.5%
5. Cc1cc(C)c(CNC(=O)c2cc(-c3ccc(CN4CCOCC4)cc3)cc3c2cnn3C2CCCC2)c(=O)[nH]1 + Cn1nnc2c(C(N)=O)ncn2c1=O  76.8%
6. COc1cc(C)[nH]c(=O)c1CN1CCc2c(Cl)cc(C(OC)C3COC3)c(Cl)c2C1=O (configuration not stated) + Cn1nnc2c(C(N)=O)ncn2c1=O  109%
